Measurements published in patent US20090215884A1, “METHOD FOR WOUND HEALING” (priority 2005, published 2009).

Legend:
dermal fibroblasts = test: Dermal fibroblast differentiation (α-smooth muscle actin expression); format: cell-based, human; details: absence of TGF-β1
Protocol: The effects of PEP005 on dermal fibroblast differentiation to myofibroblasts, was examined by the extent of α-smooth muscle actin expression by the differentiating dermal fibroblasts, following stimulation with TGF-β. Following trypsinization, the dermal fibroblasts were suspended in Fibroblast-Serum Containing Medium, containing 10% fetal calf serum, at a cell density of 2.5×10^4 cells/ml. Aliquots (250 μl/well) of the dermal fibroblast cell suspension were seeded into 8-well chamber slides (VWR International Ltd.) and maintained at 37° C., in a 5% CO2/95% air atmosphere, until approximately 30-40% confluent. […] Various controls (three chamber slide per control) were also established, including (i) Fibroblast-Serum Containing Medium alone, (ii) cells in Fibroblast-Serum Containing Medium (cytokeratin or vimentin 1° Ab control), (iii) cells in Fibroblast-Serum Containing Medium, containing 10 ng/ml TGF-β and 1% DMSO, and (iv) cells in Fibroblast-Serum Containing Medium, containing 1% DMSO.
The chamber slides were maintained at 37° C., in a 5% CO2/95% air atmosphere, for 3 days, by which time, the cells had reached approximately 75% confluence. Chamber slides were fixed in 1:1 ice cold, acetone:methanol (300 μl/well) for 20 min and blocked in 1% BSA in PBS, at 4° C., for 1 h. […]

epidermal keratinocytes = test: MTT cell viability and proliferation, epidermal keratinocytes; format: cell-based, human; details: 100 μg/ml PEP005
Protocol: Human, adult, epidermal keratinocytes, were purchased cryopreserved from Cascade Biologics Inc., Nottinghamshire, U.K. These cells (>500,000 viable cells/vial) were tested to be >70% viable, with the capacity to proliferate for at least 16 population doublings. The epidermal keratinocytes were cultured in serum-free, EpiLife® Medium (Cascade Biologics Inc.), supplemented with antibiotics (100 U/ml penicillin G sodium, […] streptomycin sulphate and 0.25 μg/ml amphotericin B) and EpiLife® Defined Growth Supplement (EDGS, consisting of purified bovine serum albumin, purified bovine transferring, hydrocortisone, recombinant human insulin-like growth factor type-1, prostaglandin E2 and recombinant human epidermal growth factor, Cascade Biologics Inc.). Epidermal keratinocytes cultures were maintained at 37° C., in a 5% CO2/95% air atmosphere, with the culture medium being changed every 2-3 days. Epidermal keratinocytes were used between 4-6 passages, for all experiments.
Prior to use, the PEP005/DMSO stock solution was removed from 4° C. storage and warmed to room temperature. […]

Q: For `C/C=C(/C)C(=O)O[C@H]1C(C)=C[C@]23C(=O)[C@@H](C=C(CO)[C@@H](O)[C@]12O)[C@H]1[C@@H](C[C@H]3C)C1(C)C` [PEP005, ingenol-3-angelate], which “α-smooth muscle actin expression” value (dermal fibroblasts; 1 μg/ml PEP005) is on record?
A: detectable α-smooth muscle actin microfilaments

Q: And the “α-smooth muscle actin expression” value (dermal fibroblasts; 10 μg/ml PEP005)?
A: detectable α-smooth muscle actin microfilaments

Q: What about the “keratinocyte cell viability/proliferation (MTT)” value (epidermal keratinocytes) of the same molecule?
A: cytotoxic effect
